Assay results as given in US12344631B2, “C17 polar-substituted heteroaromatic synthetic triterpenoids and methods of use thereof” (REATA PHARMACEUTICALS, INC., priority 2019, dated 2025).

Columns and labels:
CYP3A4 = CYP3A4 (Homo sapiens, UniProt P08684); assay: CYP3A4 (midazolam) inhibition in human liver microsomes; details: for CYP3A4 inhibition compared with historical data for RTA 402 and RTA 408: comparable conditions (FIG. 1); for inhibition at 10 min, 1 μM: human, human liver microsomes, probe midazolam (5 μM); for CYP3A4 inhibition lower than the corresponding unsubstituted compound: vs CC2, CC1 or CC3, 1 μM
CYP3A4, sequence (P08684 whole entry): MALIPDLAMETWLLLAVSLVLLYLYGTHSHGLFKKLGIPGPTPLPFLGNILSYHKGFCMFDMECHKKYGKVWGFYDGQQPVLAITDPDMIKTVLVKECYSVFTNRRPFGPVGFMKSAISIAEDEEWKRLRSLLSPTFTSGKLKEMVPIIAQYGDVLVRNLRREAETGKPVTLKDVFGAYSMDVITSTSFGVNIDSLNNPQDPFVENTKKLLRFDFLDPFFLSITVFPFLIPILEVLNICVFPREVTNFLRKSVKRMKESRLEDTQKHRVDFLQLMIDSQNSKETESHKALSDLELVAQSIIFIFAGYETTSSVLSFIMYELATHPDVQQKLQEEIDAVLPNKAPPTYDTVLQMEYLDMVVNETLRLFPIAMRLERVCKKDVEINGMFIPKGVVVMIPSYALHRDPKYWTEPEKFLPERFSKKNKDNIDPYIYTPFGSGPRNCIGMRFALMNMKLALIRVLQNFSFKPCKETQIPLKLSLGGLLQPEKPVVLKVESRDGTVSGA

[1] = system: AML-12 hepatocyte cell line; assay: Glutathione assay (total glutathione, GSH-Glo); type: cell-based, mouse; details: for EC50: Mus musculus, AML12, AML-12 cells, 24 hours, total glutathione, read-out: GSH EC50 (nM) (Mean ± SD); for GSH EC50 Relative to RTA 402 (fold) (Mean ± SD): benchmark RTA 402
Outline: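 Mouse AML-12 hepatocytes were treated with compound (0.03 nM to 1000 nM, 0.1% DMSO) for 24 hours at 37° C., and total glutathione was measured by GSH-Glo luminescence against a glutathione standard curve. EC50 values came from nonlinear regression, with basal glutathione set to 0% and the maximal compound-induced level set to 100%.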

RAW 264.7 cells = assay: Nitric oxide suppression assay (IFNγ-induced NO production); type: cell-based, mouse; details: for IC50: Mus musculus, RAW264.7, RAW 264.7 cells, 2 h pretreatment, 20 ng/mL interferon gamma 24 h, nitrite by Griess, read-out: NO IC50 (nM) (Mean ± SD); for NO IC50 Relative to RTA 402 (fold) (Mean ± SD): average of ratios from replicate experiments, benchmark RTA 402
Outline: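 Mouse RAW 264.7 macrophages in RPMI 1640 with 0.5% FBS were pretreated with compounds for 2 h at 37° C (0.1% DMSO final), then stimulated with 20 ng/mL IFNγ for 24 h. Nitrite in the supernatant was read at 525 nm against standards and normalized to DMSO/IFNγ wells. IC50 values were fitted with dependence on WST-1 viability.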

[2] = system: AREc32 reporter cell line (antioxidant response element of rat Gsta2, Nrf2 target gene); assay: AREc32 luciferase reporter activation; type: cell-based, human; details: for AREc32 EC2X Relative to RTA 402 (fold) (Mean ± SD): average of ratios from replicate experiments, benchmark RTA 402; for AREc32 Relative to CC in Same Experiment (Mean ± SD): average of ratios from experiments with direct comparisons; for EC (2-fold): human, Arec32, 19 h, concentration increasing luminescence signal 2-fold above vehicle, nineteen hours, read-out: AREc32 EC2X (nM) (Mean ± SD)
Outline: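 MCF-7-derived cells carry luciferase driven by eight copies of the rat Gsta2 ARE. EC2X was extrapolated from a nonlinear fit of fold increase over vehicle.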

SMILES | CYP3A4 inhibition compared with historical data for RTA 402 and RTA 408 (CYP3A4) | inhibition at 10 min, 1 μM (CYP3A4) [%] | CYP3A4 inhibition lower than the corresponding unsubstituted compound (CYP3A4) [%] | EC50 [1] [nM] | GSH EC50 Relative to RTA 402 (fold) (Mean ± SD) [1] | IC50 (RAW 264.7 cells) [nM] | NO IC50 Relative to RTA 402 (fold) (Mean ± SD) (RAW 264.7 cells) | AREc32 EC2X Relative to RTA 402 (fold) (Mean ± SD) [2] | AREc32 Relative to CC in Same Experiment (Mean ± SD) ([2]; comparison compound CC2) | EC (2-fold) [2] [nM] | AREc32 Relative to CC in Same Experiment (Mean ± SD) ([2]; comparison compound CC1) | AREc32 Relative to CC in Same Experiment (Mean ± SD) ([2]; comparison compound CC3)
CC1(C)CC[C@]2(c3noc(CF)n3)CC[C@]3(C)[C@H](C(=O)C=C4[C@@]5(C)C=C(C#N)C(=O)C(C)(C)[C@@H]5CC[C@]43C)[C@@H]2C1 [Compound T1] | reduced CYP3A4 inhibition | 29.1 | 36 | 0.57 ± 0.22 | 0.35 ± 0.12 | 1.24 | 0.52 ± 0.12 | 0.46 ± 0.13 | 0.62 ± 0.07 | 6.2 ± 1.37 | – | –
CC1(C)CC[C@]2(c3noc(CN)n3)CC[C@]3(C)[C@H](C(=O)C=C4[C@@]5(C)C=C(C#N)C(=O)C(C)(C)[C@@H]5CC[C@]43C)[C@@H]2C1 [Compound T2] | reduced CYP3A4 inhibition | 21.4 | 53 | 1.21 ± 1.15 | 0.47 ± 0.38 | 1.15 | 0.38 ± 0.09 | 0.28 ± 0.04 | 0.43 ± 0.00 | 3.67 ± 0.28 | – | –
CC1(C)CC[C@]2(c3nnc(CF)o3)CC[C@]3(C)[C@H](C(=O)C=C4[C@@]5(C)C=C(C#N)C(=O)C(C)(C)[C@@H]5CC[C@]43C)[C@@H]2C1 [Compound T11] | reduced CYP3A4 inhibition | 17.7 | 15 | 0.54 ± 0.29 | 0.32 ± 0.13 | 0.98 | 0.37 ± 0.07 | 0.25 ± 0.08 | – | 3.23 ± 0.77 | 0.27 ± 0.03 | –
CC1(C)CC[C@]2(c3nc(CF)no3)CC[C@]3(C)[C@H](C(=O)C=C4[C@@]5(C)C=C(C#N)C(=O)C(C)(C)[C@@H]5CC[C@]43C)[C@@H]2C1 [Compound T12] | reduced CYP3A4 inhibition | 29.7 | 35 | 0.82 ± 0.4 | 0.50 ± 0.19 | 1.27 | 0.52 ± 0.12 | 0.53 ± 0.12 | 0.75 ± 0.05 | 6.87 ± 1.57 | – | –
C[C@@H]1C(=O)C(C#N)=C[C@]2(C)C3=CC(=O)[C@@H]4[C@@H]5CC(C)(C)CC[C@]5(c5nc(CF)no5)CC[C@@]4(C)[C@]3(C)CC[C@@H]12 [Compound T34] | reduced CYP3A4 inhibition | 29.4 | 22 | 0.35 ± 0.06 | 0.18 ± 0.02 | 0.93 | 0.28 ± 0.06 | 0.36 ± 0.05 | – | 4.5 ± 0.66 | – | 0.76 ± 0.14
